In US9328324B2, “System, method and devices for tissue-based diagnosis” (The Regents of the University of California, priority 2009, dated 2016):

Assay: Preservation of bioactivity of solubilized tissue constituents under ultrasonic energy exposure
Settings: 1% w/v in LPM

preservation of bioactivity of solubilized proteins and nucleic acids | SMILES
complete preservation | CCCCCCCCCCCCOCCOCCOCCOCCO [Brij 30, polyethylene glycol dodecyl ether]
complete preservation | CCCCCCCCCC[N+](C)(C)CCCS(=O)(=O)[O-] [DPS, 3-(decyldimethylammonio) propane sulfonate]
complete preservation | CCCCCCCCCCCC(=O)N(C)CC(=O)O [NLS, N-lauroyl sarcosine]
